We go through 15 compounds from US7223745B2, “Proteasome inhibitors and methods of using the same” (Cephalon, Inc., priority 2003, dated 2007).

The target of assay [1] is T1, 20S Human Erythrocyte Proteasome (HEP) (Homo sapiens, UniProt P28074).
T1 construct: 20S Human Erythrocyte Proteasome (HEP), purchased from Immatics Biotechnologies Inc; purchased Immatics Biotechnologies Inc., Tubingen, Germany; host or cells: human erythrocytes (natural source)
Put plainly: Chymotrypsin-like activity of 20S Human Erythrocyte Proteasome (HEP), IC50 determination. Format: biochemical. Particulars: Suc-LLVY-AMC substrate, 15 minutes preincubation at 37° C. As for the experimental part:
Proteasome chymotrypsin-like activity of compounds of the invention was assayed according to the following procedure.
In 96-well microtiter plates, 20S Human Erythrocyte Proteasome (HEP), purchased from Immatics Biotechnologies Inc., Tubingen, Germany was plated at 0.2 μg/mL (about 0.6 nM catalytic sites) in 0.04% SDS 20 mM Tris buffer. A fluorimetric substrate Suc-LLVY-AMC (succinyl-Leu-Leu-Val-Tyr-7-amido-4-methylcoumarin), purchased from Sigma Inc., St. Louis, Mo., USA was added to a final concentration of 100 μM from a stock solution of 10 mM in dimethylsulfoxide. Reaction volumes were 100 μl per well. After incubation for various periods of time at 37° C., the concentration of free AMC (aminomethylcoumarin) was determined on a Perkin Elmer HTS 7000 Plus microplate reader, excitation 370 nm and emission 465 nm. Proteasome activity was determined under conditions in which substrate hydrolysis increased linearly with time and the change in fluorescence signal was proportional to the concentration of free AMC.
IC50 values are typically defined as the concentration of a compound necessary to produce 50% inhibition of the enzyme's activity. IC50 values are useful indicators of the activity of a compound for its designated use. […] In some embodiments, the inhibitors show some specificity for HEP and the ratio of the IC50 for inhibition of bovine α-chymotrypsin versus the IC50 for inhibition of HEP, i.e, IC50 (α-Chymotripsin)/IC50 (HEP), is greater then about 100.
Inhibition of the chymotrypsin-like activity of HEP and of bovine α-chymotrypsin was determined by incubating the enzyme with various concentrations of putative inhibitors for 15 minutes at 37° C. (or room temperature for α-chymotrypsin) prior to the addition of substrate. Each experimental condition was evaluated in triplicate, and replicate experiments were performed for the inhibitors described herein.

For assay [2], the system named is proteasome in Molt-4 cells. Description: Cellular assay for chymotrypsin-like activity of proteasome in Molt-4 cell line, EC50 determination. Particulars: MeOSuc-FLF-AFC substrate, 15 minutes preincubation at 37° C., read-out: MOLT4 (EC50). Format: cell-based, human. As for the experimental part: The chymotrypsin-like activity of proteasome in Molt-4 cells (human leukemia) was assayed according to the following procedure. A brief description of the method was published previously (Harding et al., J. Immunol., 1995, 155, 1767).
Molt-4 cells were washed and resuspended in HEPES-buffered Saline (5.4 mM KCl, 120 mM NaCl, 25 mM Glucose, 1.5 mM MgSO4, 1 mM Na pyruvate, 20 mM Hepes) and plated in 96-well microtiter white plates to a final concentration of 6×10^6 cells/mL. Then various 5× proteasome inhibitor concentrations (or diluted DMSO for controls), prepared from 250×DMSO solutions by diluting 50-fold using HEPES-buffered saline, were added to the plate to a final 1× concentration. After 15 minutes incubation at 37° C., a fluorimetric cell permeable substrate (MeOSuc-FLF-AFC) (methoxysuccinyl-Phe-Leu-Phe-7-amido-4-trifluoromethylcoumarin) purchased from Enzyme Systems Products, catalogue number AFC-88, was added to each well at a final concentration of 25 μM from a stock solution of 20 mM in DMSO. Reaction volumes were 100 μl per well.
The concentration of free AFC was monitored every 1.5 min for 30 min ([…]) on a Polastar Optima, BMG Labtechnologies microplate reader, using an excitation wavelength of 390 nm and emission wavelength of 520 nm. Proteasome activity was determined under conditions in which substrate hydrolysis increased linearly with time and the change in fluorescent signal was proportional to the concentration of free AFC.
EC50 values are typically defined as the concentration of a compound required to produce an inhibition of the enzyme's activity halfway between the minimum and the maximum response (0% and 85–90% respectively for this assay). EC50 values are useful indicators of the activity of a compound for its designated use.
Inhibition of chymotrypsin-like activity of proteasome in Molt-4 cells was determined by incubating cells with various concentrations of putative inhibitors for 15 minutes at 37° C. prior to the addition of substrate. Each experimental condition was evaluated in triplicate, and replicate experiments were performed for the inhibitors described herein.

Regarding `CC(C)C[C@H](NC(=O)[C@H](CCCNC(=N)N[N+](=O)[O-])NC(=O)CCCCCCCCCN1C(=O)c2ccccc2C1=O)B1O[C@@H]2C[C@@H]3C[C@@H](C3(C)C)[C@]2(C)O1` [Example 10, 10-(1,3-Dioxo-1,3-dihydro-isoindol-2-yl)-decanamide, N-[(1S)-1-[[[(1R)-1-[(3aS,4S,6S,7aR)-hexahydro-3a,5,5-trimethyl-4,6-methano-1,3,2-benzodioxaborol-2-yl]-3-methylbutyl]amino]carbonyl]-4-[[imino(nitroamino)methyl]amino]butyl]-;], in assay [1], the IC50 was less than 10 nM. Also, the EC50 in assay [2] is less than 200 nM. On to `CC(C)C[C@H](NC(=O)[C@H](CCCNC(=N)N[N+](=O)[O-])NC(=O)CCCCCCCCCCCNC(=O)OC(C)(C)C)B1O[C@@H]2C[C@@H]3C[C@@H](C3(C)C)[C@]2(C)O1` [Example 11, 12-[(1,1-dimethylethoxy)carbonylamino]dodecanamide, N-[(1S)-1-[[[(1R)-1-[(3aS,4S,6S,7aR)-hexahydro-3a,5,5-trimethyl-4,6-methano-1,3,2-benzodioxaborol-2-yl]-3-methylbutyl]amino]earbonyl]-4-[[imino(nitroamino)methyl]amino]butyl]-], for which the IC50 in assay [1] was less than 10 nM. Further, in assay [2], the EC50 was less than 200 nM.

`COC(=O)CCCCCCC(=O)N[C@@H](CCCNC(=N)N[N+](=O)[O-])C(=O)N[C@@H](CC(C)C)B1O[C@@H]2C[C@@H]3C[C@@H](C3(C)C)[C@]2(C)O1` [Example 12] displayed an IC50 in assay [1] of less than 10 nM. Besides, the EC50 in assay [2] was less than 2000 nM.

With `CC(C)C[C@H](NC(=O)[C@H](CCCNC(=N)N[N+](=O)[O-])NC(=O)CCCCCCCCCCC#N)B1O[C@@H]2C[C@@H]3C[C@@H](C3(C)C)[C@]2(C)O1` [Example 13, 11-Cyanoundecanamide, N-[(1S)-1-[[[(1R)-1-[(3aS,4S,6S,7aR)-hexahydro-3a,5,5-trimethyl-4,6-methano-1,3,2-benzodioxaborol-2-yl]-3-methylbutyl]amino]carbonyl]-4-[[imino(nitroamino)methyl]amino]butyl]-.], in assay [1], the half-inhibitory concentration (IC50) was less than 10 nM. In addition, the EC50 in assay [2] is less than 200 nM.

In turn, `CC(C)C[C@H](NC(=O)[C@H](CCCNC(=N)N[N+](=O)[O-])NC(=O)CCCCCCCCC#N)B1O[C@@H]2C[C@@H]3C[C@@H](C3(C)C)[C@]2(C)O1` [Example 14, 9–Cyanononamide, N-[(1S)-1-[[[(1R)-1-[(3aS,4S,6S,7aR)-hexahydro-3a,5,5-trimethyl-4,6-methano-1,3,2-benzodioxaborol-2-yl]-3-methylbutyl]amino]carbonyl]-4-[[imino(nitroamino)methyl]amino]butyl]] registered an IC50 in assay [1] of less than 10 nM. For the same compound, in assay [2], the EC50 is less than 200 nM. `CC(=O)NCCCCCC(=O)N[C@@H](CCCNC(=N)N[N+](=O)[O-])C(=O)N[C@@H](CC(C)C)B1O[C@@H]2C[C@@H]3C[C@@H](C3(C)C)[C@]2(C)O1` [Example 15, 6-(Acetylamino)hexanamide, N-[(1S)-1-[[[(1R)-1-[(3aS,4S,6S,7aR)-hexahydro-3a,5,5-trimethyl-4,6-methano-1,3,2-benzodioxaborol-2-yl]-3-methylbutyl]amino]carbonyl]-4-[[imino(nitroamino)methyl]amino]butyl]] registered an IC50 in assay [1] of less than 100 nM. In assay [1], `CC(C)C[C@H](NC(=O)[C@H](CCCNC(=N)N[N+](=O)[O-])NC(=O)CCCCCCCCCCCN1C(=O)c2ccccc2C1=O)B1O[C@@H]2C[C@@H]3C[C@@H](C3(C)C)[C@]2(C)O1` [Example 16] had an IC50 of less than 10 nM. For the same compound, in assay [2], the EC50 is less than 200 nM. On to `CCS(=O)(=O)NCCCCCC(=O)N[C@@H](CCCNC(=N)N[N+](=O)[O-])C(=O)N[C@@H](CC(C)C)B1O[C@@H]2C[C@@H]3C[C@@H](C3(C)C)[C@]2(C)O1` [Example 17, 6-(Ethanesulfonylamino)hexanamide, N-[(1S)-1-[[[(1R)-1-[(3aS,4S,6S,7aR)-hexahydro-3a,5,5-trimethyl-4,6-methano-1,3,2-benzodioxaborol-2-yl]-3-methylbutyl]amino]carbonyl]-4-[[imino(nitroamino)methyl]amino]butyl]], for which the IC50 in assay [1] is less than 100 nM. Moreover, the EC50 in assay [2] was greater than 10000 nM. As for `CC(C)C[C@H](NC(=O)[C@H](CCCNC(=N)N[N+](=O)[O-])NC(=O)CCCCCNS(=O)(=O)c1ccccc1)B1O[C@@H]2C[C@@H]3C[C@@H](C3(C)C)[C@]2(C)O1` [Example 18, 6-Benzenesulfonylaminohexanamide, N-[(1S)-1-[[[(1R)-1-[(3aS,4S,6S,7aR)-hexahydro-3a,5,5-trimethyl-4,6-methano-1,3,2-benzodioxaborol-2-yl]-3-methylbutyl]amino]carbonyl]-4-[[imino(nitroamino)methyl]amino]butyl]], in assay [1], the IC50 was less than 10 nM. Besides, in assay [2], the EC50 was less than 2000 nM. For `CCS(=O)(=O)NCCCCCCCC(=O)N[C@@H](CCCNC(=N)N[N+](=O)[O-])C(=O)N[C@@H](CC(C)C)B1O[C@@H]2C[C@@H]3C[C@@H](C3(C)C)[C@]2(C)O1` [Example 19], in that order: less than 10 nM and less than 200 nM. Turning to `CC(C)C[C@H](NC(=O)[C@H](CCCNC(=N)N[N+](=O)[O-])NC(=O)CCCCCCCCCCC#N)B(O)O` [Example 20, Boronic acid, [(1R)-1-[[(2S)-5-[[imino(nitroamino)methyl]amino]-2-[(11-Cianoundecanoyl)amino]-1-oxopentyl]amino]-3-methylbutyl]], in assay [1], the IC50 is less than 10 nM. Also, the EC50 in assay [2] is less than 10000 nM. Consider `CC(C)C[C@H](NC(=O)[C@H](CCCNC(=N)N[N+](=O)[O-])NC(=O)CCCCCCCCC#N)B(O)O` [Example 21, Boronic acid, [(1R)-1-[[(2S)-5-[[imino(nitroamino)methyl]amino]-2-[(9-Cyanononanoyl)amino]-1-oxopentyl]amino]-3-methylbutyl]], for which the IC50 in assay [1] is less than 10 nM. In addition, in assay [2], the EC50 is greater than 10000 nM.

`COC(=O)CCCCCCC(=O)N[C@@H](CCCNC(=N)N[N+](=O)[O-])C(=O)N[C@@H](CC(C)C)B(O)O` [Example 22, Boronic acid, [(1R)-1-[[(2S)-5-[[imino(nitroamino)methyl]amino]-2-[[7-(methoxycarbonyl)heptanoyl]amino]-1-oxopentyl]amino]-3-methylbutyl]] registered an IC50 in assay [1] of less than 10 nM. For the same compound, the EC50 in assay [2] was greater than 10000 nM. For `CC(C)C[C@H](NC(=O)[C@H](CCCNC(=N)N[N+](=O)[O-])NC(=O)CCCCCCCCCN1C(=O)c2ccccc2C1=O)B(O)O` [Example 23], in that order: less than 10 nM and less than 200 nM. Turning to `CC(=O)NCCCCCC(=O)N[C@@H](CCCNC(=N)N[N+](=O)[O-])C(=O)N[C@@H](CC(C)C)B(O)O` [Example 24, Boronic acid, [(1R)-1-[[(2S)-5-[[imino(nitroamino)methyl]amino]-2-[[6-(acetylamino)hexanoyl]amino]-1-oxopentyl]amino]-3-methylbutyl]], the IC50 in assay [1] is less than 10 nM. Besides, the EC50 in assay [2] is greater than 10000 nM.
